The source made the active and inactive calls. No cut-off for these calls is given here.
Assays:
[1] = target: Serotonin 3 (5-HT3) receptor; conditions: hek293
Description: Displacement of [3H]BLR-43694 from human 5HT3 receptor expressed in HEK293 cells

[2] = target: T1, 5-hydroxytryptamine receptor 6 (Homo sapiens, UniProt P50406); conditions: HEK293
Description: (§1) Displacement of [3H]LSD from human 5HT6 receptor expressed in HEK293 cells

[3] = target: T2, 5-hydroxytryptamine receptor 2C (Homo sapiens) (UniProt P28335); conditions: CHO
T2 sequence (whole entry): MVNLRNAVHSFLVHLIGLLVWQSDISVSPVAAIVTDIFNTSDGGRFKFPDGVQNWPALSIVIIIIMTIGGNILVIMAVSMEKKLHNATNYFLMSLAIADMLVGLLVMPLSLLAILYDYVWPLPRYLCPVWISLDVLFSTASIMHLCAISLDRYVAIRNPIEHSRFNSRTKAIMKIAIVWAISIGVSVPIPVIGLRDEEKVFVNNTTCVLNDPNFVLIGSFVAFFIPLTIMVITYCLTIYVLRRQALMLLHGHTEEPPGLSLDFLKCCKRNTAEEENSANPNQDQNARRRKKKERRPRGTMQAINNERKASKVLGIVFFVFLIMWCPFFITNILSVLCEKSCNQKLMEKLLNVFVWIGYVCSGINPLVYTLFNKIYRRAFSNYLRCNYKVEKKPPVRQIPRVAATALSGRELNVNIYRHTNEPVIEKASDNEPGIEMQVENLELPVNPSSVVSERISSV
Description: (§2) Displacement of [3H]mesulergine from 5HT2C receptor expressed in CHO cells

[4] = target: T3, 5-hydroxytryptamine receptor 2B (Homo sapiens, UniProt P41595); conditions: CHO
T3 sequence (P41595 whole entry): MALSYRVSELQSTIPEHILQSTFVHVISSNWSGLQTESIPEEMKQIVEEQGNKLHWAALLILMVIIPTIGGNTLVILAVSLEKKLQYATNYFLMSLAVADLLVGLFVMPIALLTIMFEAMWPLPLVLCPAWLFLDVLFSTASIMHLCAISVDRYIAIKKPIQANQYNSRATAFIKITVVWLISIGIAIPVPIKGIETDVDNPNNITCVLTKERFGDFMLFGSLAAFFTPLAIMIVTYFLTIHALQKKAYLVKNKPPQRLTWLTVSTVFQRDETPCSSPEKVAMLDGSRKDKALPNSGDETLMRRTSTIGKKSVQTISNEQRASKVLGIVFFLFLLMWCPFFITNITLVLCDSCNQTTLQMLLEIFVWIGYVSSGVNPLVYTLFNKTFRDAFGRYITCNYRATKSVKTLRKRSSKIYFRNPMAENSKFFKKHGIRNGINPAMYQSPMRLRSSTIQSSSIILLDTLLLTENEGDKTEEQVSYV
Description: (§3) Displacement of [3H]LSD from 5HT2B receptor expressed in CHO cells

[5] = target: T1, 5-hydroxytryptamine receptor 6; assay: biochemical
Description: as §1

Histamine H1 receptor = Histamine H1 receptor (Cavia porcellus, UniProt P31389); assay: biochemical
Sequence of Histamine H1 receptor (P31389 whole entry): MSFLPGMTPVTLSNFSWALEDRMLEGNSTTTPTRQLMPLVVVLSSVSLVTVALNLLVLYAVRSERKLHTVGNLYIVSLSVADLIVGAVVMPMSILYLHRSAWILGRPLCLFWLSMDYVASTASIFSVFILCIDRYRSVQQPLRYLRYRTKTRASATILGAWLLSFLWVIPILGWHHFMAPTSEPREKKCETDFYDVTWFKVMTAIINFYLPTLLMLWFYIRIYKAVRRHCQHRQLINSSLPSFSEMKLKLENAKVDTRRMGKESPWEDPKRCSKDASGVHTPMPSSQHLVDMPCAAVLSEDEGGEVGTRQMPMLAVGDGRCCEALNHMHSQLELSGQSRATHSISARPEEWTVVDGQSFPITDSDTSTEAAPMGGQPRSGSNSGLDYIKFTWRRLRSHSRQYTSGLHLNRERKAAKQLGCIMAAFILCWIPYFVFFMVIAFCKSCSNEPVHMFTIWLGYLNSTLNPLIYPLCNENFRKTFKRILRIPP
Description: (§4) Displacement of [3H]pyrilamine from histaminergic H1 receptor guinea pig cerebellum

[6] = target: T4, Adrenergic receptor alpha-1 (Rattus norvegicus, UniProt P15823+P23944+P43140)
T4 sequence (P15823 whole entry): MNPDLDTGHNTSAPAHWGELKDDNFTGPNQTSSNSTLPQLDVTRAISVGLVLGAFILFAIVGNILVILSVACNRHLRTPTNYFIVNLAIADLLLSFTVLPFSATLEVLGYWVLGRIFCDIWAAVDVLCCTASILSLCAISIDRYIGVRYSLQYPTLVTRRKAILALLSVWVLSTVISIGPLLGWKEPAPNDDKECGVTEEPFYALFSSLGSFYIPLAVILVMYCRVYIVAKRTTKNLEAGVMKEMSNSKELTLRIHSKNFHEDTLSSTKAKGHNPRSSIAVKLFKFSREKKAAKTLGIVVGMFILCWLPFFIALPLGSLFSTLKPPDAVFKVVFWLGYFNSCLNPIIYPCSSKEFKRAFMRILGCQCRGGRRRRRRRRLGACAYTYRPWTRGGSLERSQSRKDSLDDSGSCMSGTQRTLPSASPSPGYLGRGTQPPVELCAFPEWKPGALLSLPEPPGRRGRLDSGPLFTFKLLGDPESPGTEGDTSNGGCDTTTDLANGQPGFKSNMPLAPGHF
T4 sequence (P23944 whole entry): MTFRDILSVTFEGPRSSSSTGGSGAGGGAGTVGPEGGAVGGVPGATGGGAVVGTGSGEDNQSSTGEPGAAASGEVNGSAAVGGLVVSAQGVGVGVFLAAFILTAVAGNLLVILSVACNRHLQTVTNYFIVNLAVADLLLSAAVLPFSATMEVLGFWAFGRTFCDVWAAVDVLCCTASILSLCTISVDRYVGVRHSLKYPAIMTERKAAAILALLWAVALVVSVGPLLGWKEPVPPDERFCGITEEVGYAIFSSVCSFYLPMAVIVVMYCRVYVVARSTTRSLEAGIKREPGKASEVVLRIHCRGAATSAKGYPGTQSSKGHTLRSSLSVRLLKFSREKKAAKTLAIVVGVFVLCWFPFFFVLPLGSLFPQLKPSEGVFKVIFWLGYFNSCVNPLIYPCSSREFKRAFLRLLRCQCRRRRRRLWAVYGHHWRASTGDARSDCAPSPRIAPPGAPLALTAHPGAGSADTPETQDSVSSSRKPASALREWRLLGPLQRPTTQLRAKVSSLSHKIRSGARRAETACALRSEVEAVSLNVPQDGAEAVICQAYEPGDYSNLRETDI
T4 sequence (P43140 whole entry): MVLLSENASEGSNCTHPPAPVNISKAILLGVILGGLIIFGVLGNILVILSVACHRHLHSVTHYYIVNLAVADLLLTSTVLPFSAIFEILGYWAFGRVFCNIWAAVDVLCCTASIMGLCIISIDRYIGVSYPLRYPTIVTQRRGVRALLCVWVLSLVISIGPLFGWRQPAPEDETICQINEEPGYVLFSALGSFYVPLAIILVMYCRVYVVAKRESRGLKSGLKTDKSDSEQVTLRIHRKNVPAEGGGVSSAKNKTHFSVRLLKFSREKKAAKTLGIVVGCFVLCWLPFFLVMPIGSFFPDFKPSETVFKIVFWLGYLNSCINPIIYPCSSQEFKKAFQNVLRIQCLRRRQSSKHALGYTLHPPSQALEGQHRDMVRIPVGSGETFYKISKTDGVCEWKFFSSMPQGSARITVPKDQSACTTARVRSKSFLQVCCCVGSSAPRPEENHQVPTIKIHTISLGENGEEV
Description: Displacement of [3H]prazosin from adrenergic alpha1 receptor in rat cerebral cortex

[7] = target: T3, 5-hydroxytryptamine receptor 2B; assay: biochemical
Description: as §3

[8] = target: 5-hydroxytryptamine receptor 7 (Homo sapiens, UniProt P34969); assay: biochemical
Sequence of 5-hydroxytryptamine receptor 7 (P34969 whole entry): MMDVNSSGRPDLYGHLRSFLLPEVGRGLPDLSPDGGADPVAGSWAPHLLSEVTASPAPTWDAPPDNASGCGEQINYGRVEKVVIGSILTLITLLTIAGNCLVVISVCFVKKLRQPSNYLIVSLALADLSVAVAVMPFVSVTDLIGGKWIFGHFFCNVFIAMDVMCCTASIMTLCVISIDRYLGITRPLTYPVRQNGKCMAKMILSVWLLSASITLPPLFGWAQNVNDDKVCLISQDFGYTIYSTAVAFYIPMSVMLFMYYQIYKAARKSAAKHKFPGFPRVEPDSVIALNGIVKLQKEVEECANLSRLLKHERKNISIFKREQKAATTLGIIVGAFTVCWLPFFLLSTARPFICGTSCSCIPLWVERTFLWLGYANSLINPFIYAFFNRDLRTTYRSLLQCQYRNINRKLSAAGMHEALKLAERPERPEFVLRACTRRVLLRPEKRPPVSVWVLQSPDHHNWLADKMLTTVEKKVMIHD
Description: Displacement of [3H]LSD from human 5HT7 receptor expressed in CHO cells

[9] = target: T5, 5-hydroxytryptamine receptor 1A (Homo sapiens, UniProt P08908); assay: biochemical
T5 sequence (P08908 whole entry): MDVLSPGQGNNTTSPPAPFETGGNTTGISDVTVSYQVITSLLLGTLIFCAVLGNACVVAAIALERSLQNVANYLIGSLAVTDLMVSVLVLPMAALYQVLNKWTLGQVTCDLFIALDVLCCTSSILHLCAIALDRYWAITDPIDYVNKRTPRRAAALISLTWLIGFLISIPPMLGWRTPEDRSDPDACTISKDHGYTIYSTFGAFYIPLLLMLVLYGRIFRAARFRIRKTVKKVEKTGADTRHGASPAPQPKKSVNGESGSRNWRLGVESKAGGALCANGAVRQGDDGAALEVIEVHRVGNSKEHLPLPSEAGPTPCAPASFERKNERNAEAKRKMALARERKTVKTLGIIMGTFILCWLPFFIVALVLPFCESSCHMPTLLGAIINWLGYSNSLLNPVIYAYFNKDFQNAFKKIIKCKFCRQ
Description: Displacement of [3H]8-OH-DPAT from human 5HT1A receptor expressed in CHO cells

D(4) dopamine receptor = target: T6, D(4) dopamine receptor (Homo sapiens, UniProt P21917); assay: biochemical
T6 sequence (P21917 whole entry): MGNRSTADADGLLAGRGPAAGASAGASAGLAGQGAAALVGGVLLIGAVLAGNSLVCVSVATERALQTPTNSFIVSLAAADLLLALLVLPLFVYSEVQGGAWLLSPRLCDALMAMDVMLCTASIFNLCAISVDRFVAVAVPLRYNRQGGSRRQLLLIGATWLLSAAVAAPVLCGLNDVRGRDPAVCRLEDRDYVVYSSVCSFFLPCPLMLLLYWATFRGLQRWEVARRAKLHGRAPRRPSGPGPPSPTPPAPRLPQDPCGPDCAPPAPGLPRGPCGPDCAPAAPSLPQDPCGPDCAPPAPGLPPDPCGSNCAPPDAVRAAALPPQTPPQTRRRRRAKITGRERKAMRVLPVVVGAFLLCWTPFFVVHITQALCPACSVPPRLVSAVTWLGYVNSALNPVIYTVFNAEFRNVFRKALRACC
Description: Displacement of [3H]spiperone from human dopamine D4.4 receptor expressed in CHO cells

[10] = target: 5-hydroxytryptamine receptor 2A (Homo sapiens, UniProt P28223); assay: biochemical; type: cell-based, CHO
Sequence of 5-hydroxytryptamine receptor 2A (P28223 whole entry): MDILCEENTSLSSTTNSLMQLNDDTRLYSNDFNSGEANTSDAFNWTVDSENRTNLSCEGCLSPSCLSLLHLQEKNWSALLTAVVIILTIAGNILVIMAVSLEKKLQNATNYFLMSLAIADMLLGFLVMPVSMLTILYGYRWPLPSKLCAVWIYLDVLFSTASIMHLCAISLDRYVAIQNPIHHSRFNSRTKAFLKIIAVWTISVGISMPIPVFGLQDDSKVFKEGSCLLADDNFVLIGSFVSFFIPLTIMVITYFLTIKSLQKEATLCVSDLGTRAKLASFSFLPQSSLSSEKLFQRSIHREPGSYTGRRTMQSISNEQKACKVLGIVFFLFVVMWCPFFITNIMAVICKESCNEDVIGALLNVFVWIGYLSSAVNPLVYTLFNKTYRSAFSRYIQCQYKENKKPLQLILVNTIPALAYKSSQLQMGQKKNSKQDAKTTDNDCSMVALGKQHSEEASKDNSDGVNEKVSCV
Description: Displacement of [3H]ketanserin from human 5HT2A receptor expressed in CHO cells

D(3) dopamine receptor = D(3) dopamine receptor (Homo sapiens, UniProt P35462); assay: biochemical
Sequence of D(3) dopamine receptor (P35462 whole entry): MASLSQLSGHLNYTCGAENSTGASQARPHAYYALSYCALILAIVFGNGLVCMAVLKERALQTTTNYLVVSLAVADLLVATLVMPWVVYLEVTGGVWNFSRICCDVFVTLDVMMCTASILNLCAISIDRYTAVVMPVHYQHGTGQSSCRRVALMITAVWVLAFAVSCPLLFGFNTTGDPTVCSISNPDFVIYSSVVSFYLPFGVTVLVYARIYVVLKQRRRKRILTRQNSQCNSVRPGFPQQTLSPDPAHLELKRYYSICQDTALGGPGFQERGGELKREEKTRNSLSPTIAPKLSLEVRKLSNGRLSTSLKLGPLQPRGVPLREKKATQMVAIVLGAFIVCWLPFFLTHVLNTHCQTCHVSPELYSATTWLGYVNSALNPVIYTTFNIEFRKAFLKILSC
Description: Displacement of [3H]spiperone from human dopamine D3 receptor expressed in CHO cells

[11] = target: T7, 5-hydroxytryptamine receptor 2C (Homo sapiens, UniProt P28335); assay: biochemical
T7 sequence (P28335 whole entry): T2 sequence (whole entry)
Description: as §2

[12] = target: Sodium-dependent serotonin transporter (Homo sapiens, UniProt P31645); assay: biochemical; type: cell-based, HEK293
Sequence of Sodium-dependent serotonin transporter (P31645 whole entry): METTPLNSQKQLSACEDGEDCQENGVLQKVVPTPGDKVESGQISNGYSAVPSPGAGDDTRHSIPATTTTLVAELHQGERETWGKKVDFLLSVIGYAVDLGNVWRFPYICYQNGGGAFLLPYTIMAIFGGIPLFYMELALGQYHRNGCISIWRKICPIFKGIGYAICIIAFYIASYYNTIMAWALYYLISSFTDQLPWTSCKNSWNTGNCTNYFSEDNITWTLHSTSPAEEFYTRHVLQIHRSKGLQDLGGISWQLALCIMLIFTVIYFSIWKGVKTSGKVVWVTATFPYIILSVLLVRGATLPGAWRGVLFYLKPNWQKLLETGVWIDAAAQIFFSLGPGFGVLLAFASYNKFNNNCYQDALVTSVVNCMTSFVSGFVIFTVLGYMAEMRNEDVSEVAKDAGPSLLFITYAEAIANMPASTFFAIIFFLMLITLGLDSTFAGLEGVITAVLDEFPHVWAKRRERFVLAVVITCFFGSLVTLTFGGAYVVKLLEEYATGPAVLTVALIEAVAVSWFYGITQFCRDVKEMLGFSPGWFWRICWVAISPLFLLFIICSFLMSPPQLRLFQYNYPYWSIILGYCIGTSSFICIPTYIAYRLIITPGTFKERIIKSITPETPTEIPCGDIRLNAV
Description: Displacement of [3H]paraxetine from human 5HT transporter expressed in HEK293 cells

[13] = target: T8, Adrenergic receptor alpha-2 (Rattus norvegicus, UniProt P22086+P19328+P22909)
T8 sequence (P22086 whole entry): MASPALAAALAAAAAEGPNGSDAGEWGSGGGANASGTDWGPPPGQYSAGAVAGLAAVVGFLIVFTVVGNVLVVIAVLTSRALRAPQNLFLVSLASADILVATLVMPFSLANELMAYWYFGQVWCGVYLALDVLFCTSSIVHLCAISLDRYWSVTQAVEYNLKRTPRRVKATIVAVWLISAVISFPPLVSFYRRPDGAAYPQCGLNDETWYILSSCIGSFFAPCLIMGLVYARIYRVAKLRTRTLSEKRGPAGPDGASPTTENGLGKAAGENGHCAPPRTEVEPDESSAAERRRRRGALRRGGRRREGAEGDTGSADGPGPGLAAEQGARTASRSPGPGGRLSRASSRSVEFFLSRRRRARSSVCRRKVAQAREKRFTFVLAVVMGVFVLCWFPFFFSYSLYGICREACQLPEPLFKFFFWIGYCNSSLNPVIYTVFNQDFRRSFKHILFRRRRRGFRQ
T8 sequence (P19328 whole entry): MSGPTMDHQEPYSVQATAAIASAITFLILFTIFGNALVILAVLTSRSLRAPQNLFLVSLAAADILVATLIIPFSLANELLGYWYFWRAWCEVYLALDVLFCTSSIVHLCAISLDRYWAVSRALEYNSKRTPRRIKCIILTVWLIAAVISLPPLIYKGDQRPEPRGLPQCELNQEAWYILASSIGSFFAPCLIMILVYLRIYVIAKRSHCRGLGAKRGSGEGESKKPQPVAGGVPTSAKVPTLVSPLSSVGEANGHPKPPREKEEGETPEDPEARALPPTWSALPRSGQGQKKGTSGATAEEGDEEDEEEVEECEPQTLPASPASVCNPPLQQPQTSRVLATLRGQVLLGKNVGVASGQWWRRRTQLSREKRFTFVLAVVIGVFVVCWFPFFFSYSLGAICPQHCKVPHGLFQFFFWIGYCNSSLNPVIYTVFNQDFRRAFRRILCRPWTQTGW
T8 sequence (P22909 whole entry): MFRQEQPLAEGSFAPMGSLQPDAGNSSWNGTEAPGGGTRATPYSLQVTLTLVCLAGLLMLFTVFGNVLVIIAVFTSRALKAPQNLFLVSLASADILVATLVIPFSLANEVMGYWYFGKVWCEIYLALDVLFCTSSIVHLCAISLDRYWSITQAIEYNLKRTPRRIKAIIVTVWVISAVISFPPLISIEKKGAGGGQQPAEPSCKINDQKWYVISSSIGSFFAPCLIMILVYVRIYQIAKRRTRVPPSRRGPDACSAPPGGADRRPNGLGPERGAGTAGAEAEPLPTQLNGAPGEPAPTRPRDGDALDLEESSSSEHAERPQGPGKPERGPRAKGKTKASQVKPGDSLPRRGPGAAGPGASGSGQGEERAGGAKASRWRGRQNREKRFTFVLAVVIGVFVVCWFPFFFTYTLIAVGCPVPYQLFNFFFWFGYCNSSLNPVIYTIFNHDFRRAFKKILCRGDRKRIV
Description: Displacement of [3H]RX 821002 from adrenergic alpha-2 receptor in rat cerebral cortex

[14] = target: Histamine H1 receptor (Cavia porcellus) (UniProt P31389); conditions: Cerebellum
Sequence of Histamine H1 receptor (Cavia porcellus) (P31389 whole entry): as the sequence (P31389 whole entry) above
Description: as §4

T1 sequence (P50406 whole entry): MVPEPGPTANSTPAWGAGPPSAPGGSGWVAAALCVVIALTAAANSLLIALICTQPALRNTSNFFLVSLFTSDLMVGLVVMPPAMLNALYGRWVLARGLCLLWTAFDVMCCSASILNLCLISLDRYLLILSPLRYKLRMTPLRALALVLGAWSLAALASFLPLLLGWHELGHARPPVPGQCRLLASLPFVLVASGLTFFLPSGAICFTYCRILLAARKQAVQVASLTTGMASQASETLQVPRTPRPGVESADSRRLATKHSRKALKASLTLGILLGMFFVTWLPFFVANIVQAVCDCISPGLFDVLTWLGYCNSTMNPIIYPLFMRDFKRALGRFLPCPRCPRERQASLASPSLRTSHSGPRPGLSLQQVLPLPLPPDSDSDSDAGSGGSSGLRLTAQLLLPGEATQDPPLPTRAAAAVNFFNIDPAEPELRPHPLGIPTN

Q: With `Cc1cc2c(s1)Nc1ccccc1N=C2N1CCN(C)CC1` [OLANZAPINE] as the molecule, how does the “Log Ki” value [1] read?
A: -6.7

Q: How did the Activity [2] turn out when `O=C(CCCN1CCC(O)(c2ccc(Cl)cc2)CC1)c1ccc(F)cc1` was run?
A: inactive

Q: And the Activity [3]?
A: inactive

Q: And the Activity [4]?
A: inactive

Q: Which results are given for `O=C1Cc2cc(CCN3CCN(c4nsc5ccccc45)CC3)c(Cl)cc2N1` [ZIPRASIDONE]?
A: Ki [5]: 63.1 nM; Ki (Histamine H1 receptor): 15.8 nM; Log Ki [6]: -8.1; Ki [7]: 1.58 nM; Ki [8]: 5.01 nM; Log Ki [1]: -6.4; Ki [9]: 1.58 nM

Q: How did the Activity [2] turn out when `C[C@H]1Oc2c(cccc2N2CCN(CCCc3c[nH]c4ccc(F)cc34)CC2)NC1=O` was run?
A: inactive

Q: What about the Ki (Histamine H1 receptor) of the same molecule?
A: 126 nM

Q: What about the Ki (D(4) dopamine receptor) of the same molecule?
A: 1.58 nM

Q: What about the Ki [10] of the same molecule?
A: 20 nM

Q: What about the “Log Ki” value [6] of the same molecule?
A: -7.8

Q: What about the Ki [7] of the same molecule?
A: 1 nM

Q: And the Ki [8]?
A: 7.94 nM

Q: What about the Ki [9] of the same molecule?
A: 5.01 nM

Q: And the Ki (D(3) dopamine receptor)?
A: 0.501 nM

Q: What about the Ki [11] of the same molecule?
A: 200 nM

Q: And the Ki [12]?
A: 0.251 nM

Q: With `OCCOCCN1CCN(C2=Nc3ccccc3Sc3ccccc32)CC1` [QUETIAPINE] as the molecule, how does the Activity [2] read?
A: inactive

Q: And the Activity [3]?
A: inactive

Q: Which Activity [2] does the source give for `CCN1CCCC1CNC(=O)c1cc(S(=O)(=O)CC)c(N)cc1OC` (stereo not given) [AMISULPRIDE] here?
A: inactive

Q: What about the “Log Ki” value [13] of the same molecule?
A: -6.9

Q: And the Activity [3]?
A: inactive

Q: And the Activity [14]?
A: inactive

Q: For `Cc1nc2n(c(=O)c1CCN1CCC(c3noc4cc(F)ccc34)CC1)CCCC2`, which Activity [2] is on record?
A: inactive

Q: How did the Activity [2] turn out when `Fc1ccc(-c2cncc(CN3CCN(c4cccc5c4OCCO5)CC3)c2)cc1` [ADOPRAZINE] was run?
A: inactive

Q: What about the “Log Ki” value [6] of the same molecule?
A: -6.3

Q: And the Ki [7]?
A: 12.6 nM

Q: And the Activity [3]?
A: inactive

Q: What about the Activity [14] of the same molecule?
A: inactive

Q: What does the source list for `O=C1c2ccccc2C(=O)N1CCCCN1CC=C(c2c[nH]c3ccc(F)cc23)CC1`?
A: Ki [5]: 398 nM; Ki (Histamine H1 receptor): 31.6 nM; Ki (D(4) dopamine receptor): 79.4 nM; Ki [10]: 100 nM; Ki [7]: 1.58 nM; Log Ki [13]: -6.6; Ki [8]: 100 nM; Ki [9]: 2.51 nM; Ki (D(3) dopamine receptor): 0.794 nM; Ki [11]: 39.8 nM; Ki [12]: 0.794 nM

Reference: ChEMBL document CHEMBL1148822, “Principal component analysis differentiates the receptor binding profiles of three antipsychotic drug candidates from current antipsychotic drugs” (J Med Chem, 2007)
